Assay results reported in publication PMC9037180, “Ligand-based design and synthesis of N'-Benzylidene-3,4-dimethoxybenzohydrazide derivatives as potential antimicrobial agents; evaluation by in vitro, in vivo, and in silico approaches with SAR studies” (Journal of Enzyme Inhibition and Medicinal Chemistry, 2022).
In brackets after ≈: the same amount, converted by molar mass. Read-outs that look alike come from different tables or passages of the source.

Assays:
[1] = tested on: Aciento sensitive; assay: Minimal bactericidal concentration (MBC); assay type: cell-based, A. baumanii; conditions: Acinetobacter baumannii
Experimental: (§1) After determining the MIC for the target compounds, the minimal bactericidal concentration (MBC) for each compound that is required to kill each one of the above-mentioned microorganisms was assessed.

[2] = tested on: E. coli; assay: Minimal bactericidal concentration (MBC); assay type: cell-based; conditions: Escherichia coli
Experimental: as §1

[3] = tested on: A. baumanii; assay: Minimal bactericidal concentration (MBC); assay type: cell-based; conditions: Acinetobacter baumannii
Experimental: as §1

[4] = tested on: S. typhi; assay: Minimal bactericidal concentration (MBC); assay type: cell-based; conditions: Salmonella enterica
[5] = tested on: P. Auriginosa; assay: Minimal bactericidal concentration (MBC); assay type: cell-based, P. aeruginosa; conditions: Pseudomonas aeruginosa
Experimental: as §1

[6] = tested on: S. typhi clinical isolate; assay: Minimal inhibitory concentration (MIC), broth dilution; assay type: cell-based; conditions: Salmonella enterica, TYPHI
[7] = tested on: Acientobacter sensitive; assay: as above; conditions: Acinetobacter baumannii
[8] = tested on: S. aureus ATCC 6538; assay: as above; conditions: Staphylococcus aureus, ATCC6538
[9] = tested on: Aciento MDR; assay: as above; conditions: Acinetobacter baumannii
[10] = tested on: A. baumanii ATCC 19606; assay: as above; conditions: Acinetobacter baumannii, ATCC19606
[11] = tested on: E. faecalis; assay: Minimal bactericidal concentration (MBC); assay type: cell-based; conditions: Enterococcus faecalis
Experimental: as §1

[12] = tested on: C. albicans; assay: Minimal bactericidal concentration (MBC); assay type: cell-based; conditions: Candida albicans
Experimental: as §1

[13] = tested on: S. aureus; assay: Minimal bactericidal concentration (MBC); assay type: cell-based; conditions: Staphylococcus aureus
Experimental: as §1

[14] = tested on: C. albicans; assay: Agar well diffusion assay (antifungal); assay type: cell-based; conditions: result in words
Experimental: The agar well diffusion assay was first done to evaluate the antimicrobial activities of the different target compounds (4a–j) against gram-positive bacteria, gram-negative bacteria, and fungi (Table 1A). […] First, the antibacterial activities were tested against S. aureus ATCC 6538, Acientobacter (A. baumanii) ATCC 19606, S. typhi, E. coli, and P. aeruginosa as examples of the most common gram-positive and gram-negative bacteria, in comparison to vancomycin and ceftriaxone as two reference standards. In addition, the antifungal activities were screened against C. albicans, in comparison to amphotericin as a reference standard. […] The antibacterial activities of some tested compounds (4a, 4b, 4h, and 4e) against gram-positive and gram-negative bacteria by agar well diffusion assay are represented in the supplementary data (Figure SI1).
(§2) In vitro evaluation for antifungal activities regarding target compounds (4a–j) as well as reference drug, was done against C. albicans MTCC183 through the zone inhibition technique using well diffusion agar assay in addition to MIC.
A modification of the agar well diffusion method[55] was done to detect the antimicrobial activities of different compounds (4a–j) against gram-positive bacteria, gram-negative bacteria, and fungi. […] The zones of inhibition were measured in cm.

[15] = tested on: E. coli ATCC 25922; assay: Minimal inhibitory concentration (MIC), broth dilution; conditions: Escherichia coli
[16] = tested on: C. albicans MTCC183; assay: as above; assay type: cell-based; conditions: Candida albicans, MTCC183
Text: as §2

[17] = Cytotoxicity on cells using MTT assay; assay type: cell-based; conditions: African green monkey, Vero cells (normal mammalian cell line)
Experimental: The newly synthesised compounds were looked deeply into their efficacy using in silico, in vitro, and in vivo approaches. On the other hand, the cytotoxicity assay was performed for the tested compounds using a normal mammalian Vero cell line by the MTT assay[31]^,[32].
Moreover, the cytotoxicity values of the target compounds were determined to calculate their corresponding IC50 values through the MTT assay. The IC50 value indicates the compound’s concentration that is required to inhibit 50% of the target cells.
The MTT (3–(4,5-dimethylthiazol-2-yl)-2,5-diphenyltetrazolium bromide) tetrazolium reduction assay protocol was applied to determine the cytotoxicity of the target compounds (4a–j) on cells.

[18] = tested on: P. aeruginosa ATCC10145; assay: Minimal inhibitory concentration (MIC), broth dilution; conditions: Pseudomonas aeruginosa
[19] = tested on: E. faecalis, Acientobacter, P. auriginosa, S. aureus, S. typhi, E. coli, C. albicans; assay: Average MIC over the nine tested microbial species (SAR); assay type: cell-based; conditions: for antimicrobial activity (SAR grading): based on MIC average values; for MIC: read-out: Average MIC
Text: Herein, we aimed to study the structure-antimicrobial activity relationship of the newly synthesised N'-benzylidene-3,4-dimethoxybenzohydrazide derivatives based on MIC average values[51]^,[52] as represented in the supplementary data (Table SI1). Thereby, the changes in their antimicrobial potential and spectrum upon structural modifications could be unveiled, thus offering clues for structural changes that are capable of increasing the antimicrobial potential.

[20] = tested on: E. faecalis ATCC 29212; assay: Minimal inhibitory concentration (MIC), broth dilution; conditions: Enterococcus faecalis, ATCC29212

Row | Structure (SMILES) | MBC [1] [µM] | MBC [2] [µM] | MBC [4] [µM] | MBC [5] [µM] | MIC [6] [µM] | MIC [7] [µM] | MIC [8] [µM] | MIC [9] [µM] | MIC [10] [µM] | MBC [11] [µM] | MBC [13] [µM] | MIC ([15]; ATCC25922) [µM] | MIC [16] [µM] | MIC ([18]; ATCC10145) [µM] | antimicrobial activity (SAR grading) [19] | MIC [19] [µM] | MIC [20] [µM] | further results
1 | CO/N=C(\C(=O)N[C@@H]1C(=O)N2C(C(=O)O)=C(CSc3nc(=O)c(=O)[nH]n3C)CS[C@H]12)c1csc(N)n1 [ceftriaxone, reference compound] | 113 (≈ 62.5 µg/mL) | 113 (≈ 62.5 µg/mL) | 225 (≈ 125 µg/mL) | 225 (≈ 125 µg/mL) | 14.1 (≈ 7.81 µg/mL) | 14.1 (≈ 7.81 µg/mL) | 3.52 (≈ 1.95 µg/mL) |  |  |  |  |  |  |  |  |  |  | MBC [3]: 113 µM (≈ 62.5 µg/mL)
2 | COc1ccc(C(=O)NN=Cc2ccc(N)cc2)cc1OC [Compound 4a, N'-(4-aminobenzylidene)-3,4-dimethoxybenzohydrazide] | 105 (≈ 31.3 µg/mL) | 105 (≈ 31.3 µg/mL) | 105 (≈ 31.3 µg/mL) | 105 (≈ 31.3 µg/mL) | 52.1 (≈ 15.6 µg/mL) | 52.1 (≈ 15.6 µg/mL) | 26.1 (≈ 7.82 µg/mL) | 105 (≈ 31.3 µg/mL) | 105 (≈ 31.3 µg/mL) | 105 (≈ 31.3 µg/mL) | 105 (≈ 31.3 µg/mL) | 52.1 (≈ 15.6 µg/mL) | 26.1 (≈ 7.82 µg/mL) | 52.1 (≈ 15.6 µg/mL) | high antimicrobial activity | 58 (≈ 17.4 µg/mL) | 52.1 (≈ 15.6 µg/mL) | MBC [12]: 105 µM (≈ 31.3 µg/mL); zones of inhibition (antifungal activity) [14]: best antifungal activity; IC50 [17]: 407 µM
3 | COc1ccc(C(=O)NN=Cc2ccc(NC(C)=O)cc2)cc1OC [Compound 4c, N-(4-((2–(3,4-dimethoxybenzoyl)hydrazono)methyl)phenyl)acetamide] |  |  |  |  | 183 (≈ 62.5 µg/mL) | 45.7 (≈ 15.6 µg/mL) | 45.7 (≈ 15.6 µg/mL) | 183 (≈ 62.5 µg/mL) | 91.8 (≈ 31.3 µg/mL) | 91.8 (≈ 31.3 µg/mL) | 91.8 (≈ 31.3 µg/mL) | 22.9 (≈ 7.81 µg/mL) | 91.8 (≈ 31.3 µg/mL) | 22.9 (≈ 7.81 µg/mL) | moderate antimicrobial potential | 81.4 (≈ 27.8 µg/mL) | 45.7 (≈ 15.6 µg/mL) | 
4 | CCCCCCCCCCCCOc1ccc(C=NNC(=O)c2ccc(OC)c(OC)c2)cc1 [Compound 4j, N'-(4-(dodecyloxy)benzylidene)-3,4-dimethoxybenzohydrazide] | 66.8 (≈ 31.3 µg/mL) |  | 66.8 (≈ 31.3 µg/mL) |  | 33.3 (≈ 15.6 µg/mL) | 33.3 (≈ 15.6 µg/mL) | 66.8 (≈ 31.3 µg/mL) | 134 (≈ 62.6 µg/mL) | 16.7 (≈ 7.82 µg/mL) | 33.3 (≈ 15.6 µg/mL) |  | 66.8 (≈ 31.3 µg/mL) | 267 (≈ 125 µg/mL) | 33.3 (≈ 15.6 µg/mL) | moderate antimicrobial activity | 74.2 (≈ 34.7 µg/mL) | 16.7 (≈ 7.82 µg/mL) | MBC [3]: 66.8 µM (≈ 31.3 µg/mL)
5 | COc1ccc(C(=O)NN=Cc2cc(C(C)(C)C)cc(C(C)(C)C)c2O)cc1OC [Compound 4g, N'-(3,5-di-tert-butyl-2-hydroxybenzylidene)-3,4-dimethoxybenzohydrazide] | 75.9 (≈ 31.3 µg/mL) |  | 75.9 (≈ 31.3 µg/mL) |  | 37.8 (≈ 15.6 µg/mL) | 37.8 (≈ 15.6 µg/mL) | 152 (≈ 62.5 µg/mL) | 152 (≈ 62.5 µg/mL) | 75.9 (≈ 31.3 µg/mL) | 75.9 (≈ 31.3 µg/mL) |  | 75.9 (≈ 31.3 µg/mL) | 37.8 (≈ 15.6 µg/mL) | 75.9 (≈ 31.3 µg/mL) | moderate antimicrobial activity | 73.7 (≈ 30.4 µg/mL) | 18.9 (≈ 7.82 µg/mL) | 
6 | COc1ccc(C(=O)NN=Cc2cc(Cl)cc(Cl)c2O)cc1OC [Compound 4f, N'-(3,5-dichloro-2-hydroxybenzylidene)-3,4-dimethoxybenzohydrazide] | 85 (≈ 31.4 µg/mL) |  |  |  | 85 (≈ 31.4 µg/mL) | 21.2 (≈ 7.83 µg/mL) | 170 (≈ 62.7 µg/mL) | 85 (≈ 31.4 µg/mL) | 42.4 (≈ 15.7 µg/mL) |  |  | 42.4 (≈ 15.7 µg/mL) | 85 (≈ 31.4 µg/mL) | 85 (≈ 31.4 µg/mL) | moderate antimicrobial activity | 73.2 (≈ 27 µg/mL) | 42.4 (≈ 15.7 µg/mL) | IC50 [17]: 2160 µM
7 | CCOc1ccc(C=NNC(=O)c2ccc(OC)c(OC)c2)cc1 [Compound 4b, N'-(4-ethoxybenzylidene)-3,4-dimethoxybenzohydrazide] |  |  | 95.4 (≈ 31.3 µg/mL) | 95.4 (≈ 31.3 µg/mL) | 23.8 (≈ 7.82 µg/mL) | 47.5 (≈ 15.6 µg/mL) | 95.4 (≈ 31.3 µg/mL) | 381 (≈ 125 µg/mL) | 190 (≈ 62.6 µg/mL) |  |  | 23.8 (≈ 7.82 µg/mL) | 95.4 (≈ 31.3 µg/mL) | 23.8 (≈ 7.82 µg/mL) | weakest antimicrobial activity | 140 (≈ 46 µg/mL) | 381 (≈ 125 µg/mL) | MIC ([15]; ATCC25922, 24 h): 23.3 µM (≈ 7.64 µg/mL); MIC ([6]; 24 h): 23.3 µM (≈ 7.64 µg/mL); MIC ([18]; ATCC10145, 24 h): 23.3 µM (≈ 7.64 µg/mL)
8 | COc1ccc(C(=O)NN=Cc2cc(Br)cc(Br)c2O)cc1OC [Compound 4e, N'-(3,5-dibromo-2-hydroxybenzylidene)-3,4-dimethoxybenzohydrazide] | 68.7 (≈ 31.4 µg/mL) | 68.7 (≈ 31.4 µg/mL) |  |  | 68.7 (≈ 31.4 µg/mL) | 17.1 (≈ 7.85 µg/mL) | 34.2 (≈ 15.7 µg/mL) | 137 (≈ 62.8 µg/mL) | 34.2 (≈ 15.7 µg/mL) |  |  | 17.1 (≈ 7.85 µg/mL) |  | 68.7 (≈ 31.4 µg/mL) | moderate antimicrobial activity | 72.4 (≈ 33.2 µg/mL) | 137 (≈ 62.8 µg/mL) | MIC ([16]; C. albicans (CA), read-out: MIC): 137 µM (≈ 62.8 µg/mL)
9 | COc1ccc(C(=O)NN=Cc2c(C)cc(C)cc2C)cc1OC [Compound 4d, N'-(2,4,6-trimethylbenzylidene)-3,4-dimethoxybenzohydrazide] |  | 192 (≈ 62.5 µg/mL) | 192 (≈ 62.5 µg/mL) |  | 96 (≈ 31.3 µg/mL) | 192 (≈ 62.5 µg/mL) | 47.8 (≈ 15.6 µg/mL) | 383 (≈ 125 µg/mL) | 192 (≈ 62.5 µg/mL) | 192 (≈ 62.5 µg/mL) | 192 (≈ 62.5 µg/mL) | 47.8 (≈ 15.6 µg/mL) | 192 (≈ 62.5 µg/mL) | 96 (≈ 31.3 µg/mL) | weakest antimicrobial activity | 149 (≈ 48.7 µg/mL) | 96 (≈ 31.3 µg/mL) | 
